Experimental data reported in patent US20220054576A1, “PHARMACEUTICAL COMPOSITION COMPRISING EXTRACT FROM CAMELLIA JAPONICA AS ACTIVE INGREDIENT FOR PREVENTION AND TREATMENT OF VIRAL INFECTION” (HUSCION CO., LTD., priority 2019, published 2022).

Tests used:
[1] = test system: FluA H1N1 PR8; test: microbe, parasite or virus in culture; assay type: cell-based; settings: Influenza A virus, 48 h; MDCK cells, CPE inhibition, 2 days; positive controls; read-out: Antiviral activity EC50 FluA H1N1 PR8
[2] = test system: FluA H3N2 HongKong; test: microbe, parasite or virus in culture; assay type: cell-based, influenza A virus; settings: for EC50: Influenza A virus, H3N2, 48 h, MDCK cells, CPE inhibition, 2 days, positive controls, read-out: Antiviral activity EC50 FluA H3N2 HongKong
[3] = in vitro; settings: dog
[4] = test system: FluB Lee; test: Cytopathic effect (CPE) inhibition test, Flu B Lee; settings: read-out: Antiviral activity EC50 FluB Lee, MDCK cells, 2 days, positive controls

NC12CC3CC(CC(C3)C1)C2 [AMT, amantadine]
EC50 [1]: > 100 µM
Selectivity index FluA H3N2 HongKong [2]: >43.5
EC50 [2]: 2.3 µM
CC50 [3]: > 100 µM
EC50 [4]: > 100 µM

NC(=O)c1ncn([C@@H]2O[C@H](CO)[C@@H](O)[C@H]2O)n1 [RBV, ribavirin]
EC50 [1]: 29.9 µM
EC50 [2]: 13.4 µM
EC50 [4]: 19.6 µM
